In publication PMC10821035, “Silver and Copper Complexes with Ibuprofen and Caffeine—Preparation and Evaluation of Their Selected Biological Effects” (Molecules, 2024):
Read-outs that look alike come from different tables or passages of the source.

Tests used:
[1] = system: all tested bacterial strains; test: MIC by broth microdilution, all tested bacterial strains; assay type: cell-based
Procedure: (§1) The bacterial strains Bacillus subtilis ATCC 6637, Bacteroides fragilis ATCC 25285, Clostridium bifermentans ATCC 638, Escherichia coli ATCC 35218, Enterococcus faecalis ATCC 29212, Pseudomonas aeruginosa ATCC 27853, Staphylococcus aureus ATCC 6538, Staphylococcus aureus ATCC 25923, Staphylococcus aureus ATCC 29213, Staphylococcus aureus ATCC 43300, and Staphylococcus epidermidis ATCC 12228 were cultured in Mueller–Hinton medium (Oxoid, Basingstoke, UK) at 37 °C for 24 h.
(§2) The minimal inhibitory concentration (MIC) was determined by the broth microdilution method according to the standards of the Clinical and Laboratory Standards Institute (CLSI) manuals in 96-well plates. All stock solutions of the investigated complexes were prepared in DMSO with concentrations of 2 mg mL^−1.
(§3) The MIC was estimated as the lowest concentration of the complex inhibiting bacterial growth. As negative controls, samples without inoculum at each complex concentration were used, whereas the positive control contained the inoculum but not the investigated complexes. Each complex was tested at concentrations between 2.5 and 160 µg mL^−1. The first well contained the highest concentration, and further concentrations were achieved by serial dilution. The assay was performed in duplicate with three repetitions for each bacterial strain.

[2] = system: Bacillus subtilis ATCC 6637; test: Disc diffusion test (Kirby–Bauer); assay type: cell-based; conditions: concentration according to MIC, 6 mm filter discs
Procedure: as §1
(§4) The antimicrobial sensibility assay was performed according to the Kirby–Bauer method using 6 mm filter discs. Mueller–Hinton agar (Oxoid) was poured onto Petri dishes (90 mm), and saturated filter discs at the concentration determined as the MIC were placed onto the agar surface after distributing bacteria on the agar. The Petri dishes were incubated at 37 °C for 24 h.

[3] = system: Enterococcus faecalis ATCC 29212; test: Disc diffusion test (Kirby–Bauer); assay type: cell-based; conditions: concentration according to MIC, 6 mm filter discs
Procedure: as §1, §4

[4] = system: Bacteroides fragilis ATCC 25285; test: Disc diffusion test (Kirby–Bauer); assay type: cell-based; conditions: concentration according to MIC, 6 mm filter discs
Procedure: as §1, §4

[5] = system: Staphylococcus aureus ATCC 29213; test: Disc diffusion test (Kirby–Bauer); assay type: cell-based; conditions: concentration according to MIC, 6 mm filter discs
Procedure: as §1, §4

[6] = system: Staphylococcus aureus ATCC 6538; test: Disc diffusion test (Kirby–Bauer); assay type: cell-based; conditions: concentration according to MIC, 6 mm filter discs
Procedure: as §1, §4

[7] = system: Pseudomonas aeruginosa ATCC 27853; test: Disc diffusion test (Kirby–Bauer); assay type: cell-based; conditions: concentration according to MIC, 6 mm filter discs
Procedure: as §1, §4

[8] = system: Staphylococcus aureus ATCC 25923; test: Disc diffusion test (Kirby–Bauer); assay type: cell-based; conditions: concentration according to MIC, 6 mm filter discs
Procedure: as §1, §4

[9] = system: Staphylococcus epidermidis ATCC 12228; test: Disc diffusion test (Kirby–Bauer); assay type: cell-based; conditions: concentration according to MIC, 6 mm filter discs
Procedure: as §1, §4

[10] = system: Staphylococcus aureus ATCC 43300; test: Disc diffusion test (Kirby–Bauer); assay type: cell-based; conditions: concentration according to MIC, 6 mm filter discs
Procedure: as §1, §4

[11] = system: Escherichia coli ATCC 25218; test: Disc diffusion test (Kirby–Bauer); assay type: cell-based; conditions: concentration according to MIC, 6 mm filter discs
Procedure: as §1, §4

[12] = biological target: T1, ovine COX-1 (Ovis aries, UniProt P05979); test: COX (ovine/human) Inhibitor Screening Assay, COX-1; assay type: biochemical
T1 construct: purchased Cayman Chemicals
T1 sequence (P05979 25-600): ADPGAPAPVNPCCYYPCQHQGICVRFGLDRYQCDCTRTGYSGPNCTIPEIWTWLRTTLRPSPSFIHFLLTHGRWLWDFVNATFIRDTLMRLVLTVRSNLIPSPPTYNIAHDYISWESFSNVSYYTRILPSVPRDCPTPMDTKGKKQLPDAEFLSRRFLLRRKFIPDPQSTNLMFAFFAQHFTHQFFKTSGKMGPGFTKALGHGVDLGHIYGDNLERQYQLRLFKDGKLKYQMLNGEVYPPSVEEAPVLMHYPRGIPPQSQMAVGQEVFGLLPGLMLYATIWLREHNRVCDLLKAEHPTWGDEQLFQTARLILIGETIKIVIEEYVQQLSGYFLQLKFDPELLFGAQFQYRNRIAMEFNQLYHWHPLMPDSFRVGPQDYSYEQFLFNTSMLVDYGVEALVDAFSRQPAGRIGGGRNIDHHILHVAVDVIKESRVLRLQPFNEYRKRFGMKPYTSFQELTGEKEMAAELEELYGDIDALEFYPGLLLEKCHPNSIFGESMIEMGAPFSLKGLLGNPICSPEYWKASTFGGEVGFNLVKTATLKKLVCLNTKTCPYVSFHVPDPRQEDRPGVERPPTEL
Procedure: The ability of the obtained complexes to inhibit cyclooxygenase activity was measured using a COX (ovine/human) Inhibitor Screening Assay Kit (Cayman Chemicals, MI, USA) with ovine COX-1 and human recombinant COX-2. The amount of prostaglandin, dependent on the COX activity, after exposure to the tested complexes was calculated from the standard curve. […] The selectivity indices (SIs) were calculated according to the formula COX-1 IC50/COX-2 IC50.

[13] = system: CCD-18Co cells; test: XTT cytotoxicity/proliferation assay on CCD-18Co fibroblasts; assay type: cell-based, human; conditions: 24 h incubation, XTT test
Procedure: The cell line CCD-18Co (fibroblasts from the colon of a healthy human) was obtained from the American Type Cells Collections (Cat. No. ATCC-CRL-1459). The cells were cultured in Minimum Essential Medium Eagle (MEM) with Earle’s salts, L-glutamine, sodium bicarbonate, and phenol red, supplemented with 10% fetal bovine serum (FBS), 1% non-essential amino acids (NEAAs), and 1% penicillin/streptomycin solution (P/S), all purchased from Sigma-Aldrich (St. Louis, MO, USA). The incubation parameters were 37 ℃, 5% CO2, and 95% relative humidity. The cytotoxicity of the tested complexes (Ag-IBU, Ag-IBU-CAF, Cu-IBU, and Cu-IBU-CAF) was derived using two distinct parameters: (1) tetrazolium salt (XTT) reduction by mitochondrial succinate dehydrogenases using an XTT (Tetrazolium hydroxide) Kit; and (2) neutral red (NR) dye uptake and incorporation within lysosomes using an NR (Neutral Red) Kit. Both kits were produced by Xenometrix AG, Allschwil, Switzerland. The assays were carried out without any substantial changes to the test procedures provided by the manufacturer. The stock solutions of the tested compounds at 20 mg mL^−1 were prepared in DMSO. […] The cells were incubated for the next 3 h, gently mixed, and the absorbance was read at 480 nm with a reference wavelength of 690 nm using the multi-mode plate reader FLUOstar Omega (BMG Labtech, Ortenberg, Germany). […]

[14] = system: Bacillus subtilis ATCC 6637; test: MIC by broth microdilution; assay type: cell-based
Procedure: as §1, §2, §3

[15] = system: Enterococcus faecalis ATCC 29212; test: MIC by broth microdilution; assay type: cell-based
Procedure: as §1, §2, §3

[16] = system: Bacteroides fragilis ATCC 25285; test: MIC by broth microdilution; assay type: cell-based
Procedure: as §1, §2, §3

[17] = system: Staphylococcus aureus ATCC 29213; test: MIC by broth microdilution; assay type: cell-based
Procedure: as §1, §2, §3

[18] = system: Staphylococcus aureus ATCC 6538; test: MIC by broth microdilution; assay type: cell-based
Procedure: as §1, §2, §3

[19] = system: Pseudomonas aeruginosa ATCC 27853; test: MIC by broth microdilution; assay type: cell-based
Procedure: as §1, §2, §3

[20] = system: Staphylococcus aureus ATCC 25923; test: MIC by broth microdilution; assay type: cell-based
Procedure: as §1, §2, §3

[21] = system: Staphylococcus epidermidis ATCC 12228; test: MIC by broth microdilution; assay type: cell-based
Procedure: as §1, §2, §3

[22] = system: Staphylococcus aureus ATCC 43300; test: MIC by broth microdilution; assay type: cell-based
Procedure: as §1, §2, §3

[23] = system: Escherichia coli ATCC 25218; test: MIC by broth microdilution; assay type: cell-based
Procedure: as §1, §2, §3

Row | SMILES | Inhibition Halo [2] [mm] | Inhibition Halo [3] [mm] | Inhibition Halo [4] [mm] | Inhibition Halo [5] [mm] | Inhibition Halo [6] [mm] | Inhibition Halo [7] [mm] | Inhibition Halo [8] [mm] | Inhibition Halo [9] [mm] | Inhibition Halo [10] [mm] | Inhibition Halo [11] [mm] | IC50 COX-1 [12] [µg/mL] | MIC ([1]; 2.5–160 µg mL^−1) [µg/mL] | 24h-IC50 [13] [µg/mL] | MIC [14] [µg/mL] | MIC [15] [µg/mL] | MIC [16] [µg/mL] | MIC [17] [µg/mL] | MIC [18] [µg/mL] | MIC [19] [µg/mL] | MIC [20] [µg/mL] | other results
1 | CC(C)Cc1ccc(C(C)C(=O)O)cc1 (racemic) [IBU, (RS)-2-(4-(2-methylpropyl)phenyl)propanoic acid, reference compound] | – | – | – | – | – | – | – | – | – | – | – | – | – | – | – | – | – | – | – | – | MIC ([1]; 2.5–160 µg mL^−1, read-out: MIC): > 200 µg/mL
2 | CC(C)Cc1ccc(C(C)C(=O)[O][Ag])cc1.Cn1c(=O)c2c(ncn2C)n(C)c1=O (centres unmarked) [Ag-IBU-CAF] | 13 | 16 | 10 | 12 | 15 | 15 | 16 | 11 | 15 | 17 | 62.5 | ≤ 20 | 33.35 | 10 | 5 | 20 | 5 | 5 | 10 | 5 | MIC [21]: 10 µg/mL; MIC [22]: 10 µg/mL; MIC [23]: 5 µg/mL
3 | CC(C)Cc1ccc(C(C)C(=O)[O][Ag])cc1 (centres unmarked) [Ag-IBU] | 11 | 14 | 7 | 7 | 14 | 10 | 14 | 10 | 13 | 9 | 64.6 | ≤ 20 | 25.10 | 10 | 10 | 20 | 5 | 10 | 10 | 10 | MIC [21]: 20 µg/mL; MIC [22]: 20 µg/mL; MIC [23]: 10 µg/mL
